Experimental data published in US20240199546A1, “INHIBITORS OF SOLUTE CARRIER FAMILY 6A MEMBER 19 (SLC6A19) AND METHODS OF USE THEREOF” (Maze Therapeutics, Inc., priority 2022, published 2024).

Columns and labels:
human SLC6A19 and TMEM27 [1] = target: T1, human SLC6A19 and TMEM27 (Homo sapiens, UniProt Q695T7); test: 13C6,15N-isoleucine uptake in CHO cells with doxycycline-inducible expression of human SLC6A19 and TMEM27, RapidFire mass spectrometry (Example B-2); type: cell-based; details: read-out: SLC6A19_RapidFire Uptake Assay IC50
T1 construct: expressed in transfected cells
T1 sequence (Q695T7 1-634): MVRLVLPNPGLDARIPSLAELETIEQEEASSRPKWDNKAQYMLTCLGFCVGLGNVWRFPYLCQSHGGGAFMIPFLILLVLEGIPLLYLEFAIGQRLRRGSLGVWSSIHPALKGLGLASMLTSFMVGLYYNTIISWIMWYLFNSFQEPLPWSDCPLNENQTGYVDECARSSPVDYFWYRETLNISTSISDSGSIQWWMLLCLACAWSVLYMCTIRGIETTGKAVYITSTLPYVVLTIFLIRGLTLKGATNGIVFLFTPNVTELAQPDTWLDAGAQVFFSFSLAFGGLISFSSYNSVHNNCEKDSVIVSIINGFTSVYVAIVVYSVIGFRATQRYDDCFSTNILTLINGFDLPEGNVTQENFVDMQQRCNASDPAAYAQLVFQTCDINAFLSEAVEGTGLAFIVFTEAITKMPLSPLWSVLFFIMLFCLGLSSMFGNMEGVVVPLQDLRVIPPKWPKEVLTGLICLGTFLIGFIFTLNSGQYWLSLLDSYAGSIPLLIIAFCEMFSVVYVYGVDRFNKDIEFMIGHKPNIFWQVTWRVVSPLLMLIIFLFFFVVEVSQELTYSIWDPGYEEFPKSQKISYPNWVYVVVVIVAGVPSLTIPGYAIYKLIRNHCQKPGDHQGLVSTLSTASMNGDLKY
T1 sequence (Q9HBJ8 15-222 partner): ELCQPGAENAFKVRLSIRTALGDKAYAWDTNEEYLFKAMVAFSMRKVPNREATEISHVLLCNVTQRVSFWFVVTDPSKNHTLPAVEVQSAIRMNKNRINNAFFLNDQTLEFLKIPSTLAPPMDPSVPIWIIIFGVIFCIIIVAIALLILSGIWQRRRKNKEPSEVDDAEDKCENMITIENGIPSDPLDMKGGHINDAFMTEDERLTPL
Protocol: Assay ready vials of CHO cells with doxycycline inducible expression of human SLC6A19 and TMEM27 were thawed, plated in T175 flasks containing DMEM/F12 media, 10% FBS, 1% Penicillin-Streptomycin, 1× UltraGlutamate, 1 mM Sodium Pyruvate, Sodium Bicarbonate (7.5 mL of 7.5% solution in 500 mL media final), 5 μg/mL Blasticidin, 150 μg/mL Hygromycin B Gold, and 500 μg/mL G418, and incubated (humidified, 37° C. with 5% CO2) for 48 hours. Media was then removed, flasks were washed with 20 mL of DPBS, and 5 mL of TrypLE™ Express was added to each flask to initiate cell dissociation. After 5 minutes, 10 mL of cell culture media was added to each flask and mixed. The cell suspension was collected and centrifuged for 5 minutes at 200×g. The supernatant was removed, and the pellet was resuspended in 10 mL of cell culture media. Resuspended cells were counted using a Vi-Cell. 30 μL/well (20,000 cells/well) of cell suspension was added to Poly-D-Lysine 384-well black/clear plates. Plates were incubated (humidified, 37° C. with 5% CO2) for 24 hours. To induce expression of human SLC6A19 and TMEM27, 10 μL of assay culture media containing 4 μg/mL doxycycline was added to each well. Assay plates were then incubated (humidified, 37° C. with 5% CO2) overnight. After incubation, the media was removed, and wells were washed 3 times with 40 μL of warmed DPBS. Next, 10 μL of warmed assay buffer (137 mM NaCl, 5 mM KCl, 1 mM CaCl2), 1 mM MgCl2, 10 mM HEPES, 10 mM glucose, pH 7.2) was added to each well. 10 μL/well of test compound or positive control compound to define 0% activity (i.e., 100% inhibition), was then added into each well. All compounds were plated in a duplicate 10-point dilution series that consisted of 2-fold dilutions. The plates were incubated (humidified, 37° C. with 5% C2) with compound for 20 minutes. Afterwards, 20 μL/well of 2 mM 13C6,15N-1-isoleucine was added to each well and plates were incubated again (humidified, 37° C. with 5% C02) for another 20 minutes. Assay buffer was then removed, and plates were washed. 70 μL/well of stop solution (75% acetonitrile, 25% HPLC grade water, 250 nM 1-leucine-1-13C (RapidFire standard)) was added to each well. The plates were sealed and then placed in a −20° C. freezer for 20 minutes. The plates were thawed at room temperature for 20 minutes and then centrifuge for 20 minutes at 3000 rpm. Using an ABSciex API4000 mass spectrometer, processed samples were loaded onto the graphitic carbon SPE-column. The time for aspiration, load/wash, elution and re-equilibration time was 600, 1500, 3000 and 500 milliseconds, respectively. Peak areas were calculated using RapidFire Integrator software.

human SLC6A19 and TMEM27 [2] = target: T1, human SLC6A19 and TMEM27; test: Radiolabelled (3H) leucine uptake in CHO cells with doxycycline-inducible expression of human SLC6A19 and TMEM27 (Example B-1); type: cell-based; details: CHO cells with doxycycline-inducible expression of human SLC6A19 and TMEM27, read-out: SLC6A19_Radioligand Uptake Assay IC50
Summary of the method: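 CHO cells were induced with doxycycline for 18 h at 37 °C, washed in HBSS, then exposed to compounds for 1 h: 8-point, 3-fold dilutions in duplicate, 0.5% DMSO final. Uptake measured by scintillation counting after 2 h shaking. Activity normalized with positive control as 0% and DMSO as 100%.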

Row | SMILES | IC50 (human SLC6A19 and TMEM27 [1]) | IC50 (human SLC6A19 and TMEM27 [2])
1 | CC1(C(=O)NCc2cc3cc(Cl)c(OCc4ccns4)cc3[nH]2)CC1 [Compound 322, N-((5-chloro-6-(isothiazol-5-ylmethoxy)-1H-indol-2-yl)methyl)-1-methylcyclopropane-1-carboxamide] | 138 nM | 275 nM
2 | CC1(C(=O)NCc2cc3cc(C4CC4)c(OCc4ccon4)cc3[nH]2)CC1 [Compound 342, N-((5-cyclopropyl-6-(isoxazol-3-ylmethoxy)-1H-indol-2-yl)methyl)-1-methylcyclopropane-1-carboxamide] | 215 nM | 258 nM
3 | O=C(NCc1cc2cc(F)c(OCc3cccc(F)n3)cc2[nH]1)C1CC1 [Compound 497, N-((5-fluoro-6-((6-fluoropyridin-2-yl)methoxy)-1H-indol-2-yl)methyl)cyclopropanecarboxamide] | 184 nM | 197 nM
4 | CN(C(=O)NCc1cc2cc(Cl)c(OCc3ccon3)cc2[nH]1)C1CC1 [Compound 379, 3-((5-chloro-6-(isoxazol-3-ylmethoxy)-1H-indol-2-yl)methyl)-1-cyclopropyl-1-methylurea] | 240 nM | 382 nM
5 | CC1CCCN1C(=O)NCc1cc2cc(F)c(OCc3ccon3)cc2[nH]1 (stereo not shown) [Compound 90, N-((5-fluoro-6-(isoxazol-3-ylmethoxy)-1H-indol-2-yl)methyl)-2-methylpyrrolidine-1-carboxamide] | 1200 nM | 870 nM
6 | O=C(NCc1cc2cc(Cl)c(OCc3cccc(F)n3)cc2[nH]1)C1CC1 [Compound 499, N-((5-chloro-6-((6-fluoropyridin-2-yl)methoxy)-1H-indol-2-yl)methyl)cyclopropanecarboxamide] | 55.4 nM | 213 nM
7 | CNC(=O)NCc1cc2cc(F)c(OCc3cscn3)cc2[nH]1 [Compound 214, 1-((5-fluoro-6-(thiazol-4-ylmethoxy)-1H-indol-2-yl)methyl)-3-methylurea] | 193 nM | 152 nM
8 | CC1(C(=O)NCc2cc3ccc(NCc4ccon4)cc3[nH]2)CC1 [Compound 152, N-((6-((isoxazol-3-ylmethyl)amino)-1H-indol-2-yl)methyl)-1-methylcyclopropane-1-carboxamide] | 2060 nM | 531 nM
9 | CN(Cc1ccccc1)c1ccc2cc(CNC(=O)C3(C)CC3)[nH]c2c1 [Compound 2, N-((6-(benzyl(methyl)amino)-1H-indol-2-yl)methyl)-1-methylcyclopropane-1-carboxamide] | 992 nM | 
10 | CC1(C(=O)NCc2cc3ccc(OCc4cncs4)cc3[nH]2)CC1 [Compound 48, 1-methyl-N-((6-(thiazol-5-ylmethoxy)-1H-indol-2-yl)methyl)cyclopropane-1-carboxamide] | 493 nM | 
11 | CC1(C(=O)NCc2cc3ccc(OCc4ccsn4)cc3[nH]2)CC1 [Compound 94, N-((6-(isothiazol-3-ylmethoxy)-1H-indol-2-yl)methyl)-1-methylcyclopropanecarboxamide] | 43.4 nM | 
12 | CC1(C(=O)NCc2cc3cc(F)c(OCc4cocn4)cc3[nH]2)CC1 [Compound 7, N-((5-fluoro-6-(oxazol-4-ylmethoxy)-1H-indol-2-yl)methyl)-1-methylcyclopropane-1-carboxamide] | 225 nM | 
13 | CCc1cc(COc2cc3[nH]c(CNC(=O)C4(C)CC4)cc3cc2Cl)no1 [Compound 95] | 267 nM | 
14 | CC1(C(=O)NCc2cc3ccc(OCc4ccon4)cc3[nH]2)CC1 [Compound 20, N-((6-(isoxazol-3-ylmethoxy)-1H-indol-2-yl)methyl)-1-methylcyclopropane-1-carboxamide] | 168 nM | 
15 | CC1(C(=O)NCc2cc3cc(Cl)c(OCc4nccs4)cc3[nH]2)CC1 [Compound 40, N-((5-chloro-6-(thiazol-2-ylmethoxy)-1H-indol-2-yl)methyl)-1-methylcyclopropane-1-carboxamide] | 64 nM | 
16 | CC1(C(=O)NCc2cc3ccc(OCc4ccncc4)cc3[nH]2)CC1 [Compound 56, 1-methyl-N-((6-(pyridin-4-ylmethoxy)-1H-indol-2-yl)methyl)cyclopropane-1-carboxamide] | 1950 nM | 
17 | CNC(=O)COc1ccc2cc(CNC(=O)C3(C)CC3)[nH]c2c1 [Compound 162, 1-methyl-N-((6-(2-(methylamino)-2-oxoethoxy)-1H-indol-2-yl)methyl)cyclopropane-1-carboxamide] | 16300 nM | 
18 | CC1(C(=O)NCc2cc3cc(Cl)c(OCc4cocn4)cc3[nH]2)CC1 [Compound 161, N-((5-chloro-6-(oxazol-4-ylmethoxy)-1H-indol-2-yl)methyl)-1-methylcyclopropane-1-carboxamide] | 68 nM | 
19 | CC1(C(=O)NCc2cc3ccc(OCc4ccccn4)cc3[nH]2)CC1 [Compound 54, 1-methyl-N-((6-(pyridin-2-ylmethoxy)-1H-indol-2-yl)methyl)cyclopropane-1-carboxamide] | 155 nM | 
20 | CC1(C(=O)NCc2cc3cc(F)c(OCc4cnco4)cc3[nH]2)CC1 [Compound 57, N-((5-fluoro-6-(oxazol-5-ylmethoxy)-1H-indol-2-yl)methyl)-1-methylcyclopropane-1-carboxamide] | 577 nM | 
21 | CC1(C(=O)NCc2cc3ccc(OCc4cnco4)cc3[nH]2)CC1 [Compound 163, 1-methyl-N-((6-(oxazol-5-ylmethoxy)-1H-indol-2-yl)methyl)cyclopropane-1-carboxamide] | 920 nM | 
22 | CC1(C(=O)NCc2[nH]c3cc(OCc4ccccc4)ccc3c2Cl)CC1 [Compound 158, N-((6-(benzyloxy)-3-chloro-1H-indol-2-yl)methyl)-1-methylcyclopropane-1-carboxamide] | 188 nM | 
23 | CNC(=O)NCc1cc2ccc(OCc3cscn3)cc2[nH]1 [Compound 217, 1-methyl-3-((6-(thiazol-4-ylmethoxy)-1H-indol-2-yl)methyl)urea] | 3420 nM | 
24 | CC1(C(=O)NCc2cc3ccc(OCc4cnsn4)cc3[nH]2)CC1 [Compound 166, N-((6-((1,2,5-thiadiazol-3-yl)methoxy)-1H-indol-2-yl)methyl)-1-methylcyclopropane-1-carboxamide] | 48 nM | 
25 | CC1(C(=O)NCc2cc3ccc(OCC4CCOC4)cc3[nH]2)CC1 (stereo not shown) [Compound 188, 1-methyl-N-((6-((tetrahydrofuran-3-yl)methoxy)-1H-indol-2-yl)methyl)cyclopropane-1-carboxamide] | 4450 nM | 
26 | Cc1nc(COc2ccc3cc(CNC(=O)C4(C)CC4)[nH]c3c2)co1 [Compound 180, 1-methyl-N-((6-((2-methyloxazol-4-yl)methoxy)-1H-indol-2-yl)methyl)cyclopropane-1-carboxamide] | 563 nM | 
